{
  "source": "patent US20230120480A1",
  "about": "“METHODS FOR REMOVING CONTAMINANTS FROM PLANT-DERIVED PHARMACEUTICALS” (priority 2021, published 2023)",
  "origin": "cited, not measured here",
  "data": [
    {"settings": "permissible limit of the pesticide in Cannabis, State of Oregon", "units": {"Action Level (ppm)": "ppm"}, "values": [
      {"compound": "Cc1c(COC(=O)[C@@H]2[C@H](/C=C(\\Cl)C(F)(F)F)C2(C)C)cccc1-c1ccccc1", "note": "(racemic) [Bifenthrin]", "Action Level (ppm)": 0.2},
      {"compound": "COP(=O)(NC(C)=O)SC", "note": "(centres unmarked) [Acephate]", "Action Level (ppm)": 0.4},
      {"compound": "CCCCCCCCCCCCC1=C(OC(C)=O)C(=O)c2ccccc2C1=O", "note": "[Acequinocyl]", "Action Level (ppm)": 2},
      {"compound": "C/C(=N\\C#N)N(C)Cc1ccc(Cl)nc1", "note": "[Acetamiprid]", "Action Level (ppm)": 0.2},
      {"compound": "CNC(=O)O/N=C/C(C)(C)SC", "note": "[Aldicarb]", "Action Level (ppm)": 0.4},
      {"compound": "CO/C=C(/C(=O)OC)c1ccccc1Oc1cc(Oc2ccccc2C#N)ncn1", "note": "[Azoxystrobin]", "Action Level (ppm)": 0.2},
      {"compound": "COc1ccc(-c2ccccc2)cc1NNC(=O)OC(C)C", "note": "[Bifenazate]", "Action Level (ppm)": 0.2},
      {"compound": "O=C(Nc1ccccc1-c1ccc(Cl)cc1)c1cccnc1Cl", "note": "[Boscalid]", "Action Level (ppm)": 0.4},
      {"compound": "CNC(=O)Oc1cccc2ccccc12", "note": "[Carbaryl]", "Action Level (ppm)": 0.2},
      {"compound": "CNC(=O)Oc1cccc2c1OC(C)(C)C2", "note": "[Carbofuran]", "Action Level (ppm)": 0.2},
      {"compound": "CNC(=O)c1cc(Cl)cc(C)c1NC(=O)c1cc(Br)nn1-c1ncccc1Cl", "note": "[Chlorantranili- prole]", "Action Level (ppm)": 0.2},
      {"compound": "CCOCn1c(-c2ccc(Cl)cc2)c(C#N)c(Br)c1C(F)(F)F", "note": "[Chlorfenapyr]", "Action Level (ppm)": 1},
      {"compound": "CC1(C)C(C=C(Cl)Cl)C1C(=O)OC(C#N)c1ccc(F)c(Oc2ccccc2)c1", "note": "(centres unmarked) [Cyfluthrin]", "Action Level (ppm)": 1},
      {"compound": "COP(=O)(OC)OC=C(Cl)Cl", "note": "[DDVP (Dichlorvos)]", "Action Level (ppm)": 0.1},
      {"compound": "CCOP(=S)(OCC)Oc1cc(C)nc(C(C)C)n1", "note": "[Diazinon]", "Action Level (ppm)": 0.2},
      {"compound": "CNC(=O)CSP(=S)(OC)OC", "note": "[Dimethoate]", "Action Level (ppm)": 0.2},
      {"compound": "CCOc1ccc(C(C)(C)COCc2cccc(Oc3ccccc3)c2)cc1", "note": "[Etofenprox]", "Action Level (ppm)": 0.4},
      {"compound": "CCOc1cc(C(C)(C)C)ccc1C1COC(c2c(F)cccc2F)=N1", "note": "(centres unmarked) [Etoxazole]", "Action Level (ppm)": 0.2},
      {"compound": "CCOC(=O)NCCOc1ccc(Oc2ccccc2)cc1", "note": "[Fenoxycarb]", "Action Level (ppm)": 0.2},
      {"compound": "Cc1nn(C)c(Oc2ccccc2)c1/C=N/OCc1ccc(C(=O)OC(C)(C)C)cc1", "note": "[Fenpyroximate]", "Action Level (ppm)": 0.4},
      {"compound": "N#Cc1nn(-c2c(Cl)cc(C(F)(F)F)cc2Cl)c(N)c1[S+]([O-])C(F)(F)F", "note": "(centres unmarked) [Fipronil]", "Action Level (ppm)": 0.4},
      {"compound": "N#CCNC(=O)c1cnccc1C(F)(F)F", "note": "[Flonicamid]", "Action Level (ppm)": 1},
      {"compound": "N#Cc1c[nH]cc1-c1cccc2c1OC(F)(F)O2", "note": "[Fludioxonil]", "Action Level (ppm)": 0.4},
      {"compound": "CC1C(c2ccc(Cl)cc2)SC(=O)N1C(=O)NC1CCCCC1", "note": "(centres unmarked) [Hexythiazox]", "Action Level (ppm)": 1},
      {"compound": "C=CCOC(Cn1ccnc1)c1ccc(Cl)cc1Cl", "note": "(centres unmarked) [Imazalil]", "Action Level (ppm)": 0.2},
      {"compound": "O=[N+]([O-])NC1=NCCN1Cc1ccc(Cl)nc1", "note": "[Imidacloprid]", "Action Level (ppm)": 0.4},
      {"compound": "CO/N=C(/C(=O)OC)c1ccccc1COc1ccccc1C", "note": "[Kresoxim- methyl]", "Action Level (ppm)": 0.4},
      {"compound": "CCCCC(CC)CN1C(=O)C2C3C=CC(C3)C2C1=O", "note": "(centres unmarked) [MGK-264]", "Action Level (ppm)": 0.2},
      {"compound": "CCOC(=O)CC(SP(=S)(OC)OC)C(=O)OCC", "note": "(centres unmarked) [Malathion]", "Action Level (ppm)": 0.2},
      {"compound": "COCC(=O)N(c1c(C)cccc1C)C(C)C(=O)OC", "note": "(centres unmarked) [Metalaxyl]", "Action Level (ppm)": 0.2},
      {"compound": "CNC(=O)Oc1cc(C)c(SC)c(C)c1", "note": "[Methiocarb]", "Action Level (ppm)": 0.2},
      {"compound": "CNC(=O)ON=C(C)SC", "note": "[Methomyl]", "Action Level (ppm)": 0.4},
      {"compound": "CCCCC(C#N)(Cn1cncn1)c1ccc(Cl)cc1", "note": "(centres unmarked) [Myclobutanil]", "Action Level (ppm)": 0.2},
      {"compound": "COP(=O)(OC)OC(Br)C(Cl)(Cl)Br", "note": "(centres unmarked) [Naled]", "Action Level (ppm)": 0.5},
      {"compound": "CNC(=O)O/N=C(\\SC)C(=O)N(C)C", "note": "[Oxamyl]", "Action Level (ppm)": 1},
      {"compound": "CC(C)(C)C(O)C(Cc1ccc(Cl)cc1)n1cncn1", "note": "(centres unmarked) [Paclobutrazol]", "Action Level (ppm)": 0.4},
      {"compound": "CC1(C)C(C=C(Cl)Cl)C1C(=O)OCc1cccc(Oc2ccccc2)c1", "note": "(centres unmarked) [Permethrins]", "Action Level (ppm)": 0.2},
      {"compound": "COP(=S)(OC)SCN1C(=O)c2ccccc2C1=O", "note": "[Phosmet]", "Action Level (ppm)": 0.2},
      {"compound": "C#CCC1=C(C)C(OC(=O)[C@@H]2[C@@H](C=C(C)C)C2(C)C)CC1=O", "note": "(some centres unmarked) [Prallethrin]", "Action Level (ppm)": 0.2},
      {"compound": "CCCC1COC(Cn2cncn2)(c2ccc(Cl)cc2Cl)O1", "note": "(centres unmarked) [Propiconazole]", "Action Level (ppm)": 0.4},
      {"compound": "CNC(=O)Oc1ccccc1OC(C)C", "note": "[Propoxur]", "Action Level (ppm)": 0.2},
      {"compound": "CC(C)(C)c1ccc(CSc2cnn(C(C)(C)C)c(=O)c2Cl)cc1", "note": "[Pyridaben]", "Action Level (ppm)": 0.2},
      {"compound": "Cc1cc(C)c(C2=C(OC(=O)CC(C)(C)C)C3(CCCC3)OC2=O)c(C)c1", "note": "[Spiromesifen]", "Action Level (ppm)": 0.2},
      {"compound": "CCOC(=O)OC1=C(c2cc(C)ccc2C)C(=O)N[C@]12CC[C@@H](OC)CC2", "note": "[Spirotetramat]", "Action Level (ppm)": 0.2},
      {"compound": "CCCN(CC)CC1COC2(CCC(C(C)(C)C)CC2)O1", "note": "(centres unmarked) [Spiroxamine]", "Action Level (ppm)": 0.4},
      {"compound": "CC(C)(C)C(O)(CCc1ccc(Cl)cc1)Cn1cncn1", "note": "(centres unmarked) [Tebuconazole]", "Action Level (ppm)": 0.4},
      {"compound": "N#C/N=C1\\SCCN1Cc1ccc(Cl)nc1", "note": "[Thiacloprid]", "Action Level (ppm)": 0.2},
      {"compound": "CN1COCN(Cc2cnc(Cl)s2)/C1=N\\[N+](=O)[O-]", "note": "[Thiamethoxam]", "Action Level (ppm)": 0.2},
      {"compound": "CO/N=C(/C(=O)OC)c1ccccc1CO/N=C(\\C)c1cccc(C(F)(F)F)c1", "note": "[Trifloxystrobin]", "Action Level (ppm)": 0.2},
      {"compound": "Abamectin", "Action Level (ppm)": 0.5},
      {"compound": "Pyrethrins", "Action Level (ppm)": 1},
      {"compound": "Spinosad", "Action Level (ppm)": 0.2}
    ]},
    {"settings": "not given", "values": [
      {"compound": "CCCCCc1cc(O)c2c(c1)OC(C)(C)[C@H]1CCC(C)=C[C@@H]21", "note": "(relative stereo) [Delta-9-cis-tetrahydrocannabinol]", "Water Soluble?": "No"},
      {"compound": "CCCCCc1cc(O)c2c(c1)OC(C)(C)C1=C2CC(C)(O)C(O)C1", "note": "(centres unmarked) [8,9-Dihydroxy-delta-6a-tetrahydrocannabinol]", "Water Soluble?": "No"},
      {"compound": "CCCCCc1cc(O)c2c(c1)OC(C)(C)C1=C2C(OCC)C(C)(O)CC1", "note": "(centres unmarked) [10-Ethoxy-9-hydroxy-delta-6a-tetrahydrocannabinol]", "Water Soluble?": "No"},
      {"compound": "CCCCCc1cc(O)c2c(c1)OC(C)(C)C1=C2C(=O)C(C)CC1", "note": "(centres unmarked) [10-Oxo-delta-6a-tetrahydrocannabinol]", "Water Soluble?": "No"},
      {"compound": "CCCCCc1cc(O)c2c(c1)OC(C)(C)[C@H](CCC(C)=O)C2=O", "note": "[Cannabichromanon]", "Water Soluble?": "No"},
      {"compound": "CCCCCc1cc(O)c2c(c1)OC(C)(CCC=C(C)C)C=C2", "note": "(centres unmarked) [Cannabichromene]", "Water Soluble?": "No"},
      {"compound": "CCCCCc1cc2c(c(O)c1C(=O)O)C=CC(C)(CCC=C(C)C)O2", "note": "(centres unmarked) [Cannabichromenic acid]", "Water Soluble?": "Yes"},
      {"compound": "CCCc1cc(O)c2c(c1)OC(C)(CCC=C(C)C)C=C2", "note": "(centres unmarked) [Cannabichromevarin]", "Water Soluble?": "No"},
      {"compound": "CCCc1cc2c(c(O)c1C(=O)O)C=CC(C)(CCC=C(C)C)O2", "note": "(centres unmarked) [Cannabichromevarinic acid]", "Water Soluble?": "No"},
      {"compound": "CCCCCc1cc(O)c2c(c1)OC1(C)CCC3C1C2C3(C)C", "note": "(centres unmarked) [Cannabicyclol]", "Water Soluble?": "No"},
      {"compound": "CCCCCc1cc2c(c(O)c1C(=O)O)C1C3C(CCC3(C)O2)C1(C)C", "note": "(centres unmarked) [Cannabicyclolic acid]", "Water Soluble?": "Yes"},
      {"compound": "CCCc1cc(O)c2c(c1)OC1(C)CCC3C1C2C3(C)C", "note": "(centres unmarked) [Cannabicyclovarin]", "Water Soluble?": "No"},
      {"compound": "C=C(C)[C@@H]1CCC(C)=C[C@H]1c1c(O)cc(CCCCC)cc1OC", "note": "[Cannabidiol monomethylether]", "Water Soluble?": "No"},
      {"compound": "C=C(C)[C@@H]1CCC(C)=C[C@H]1c1c(O)cc(CCCCC)cc1O", "note": "[Cannabidiol, reference compound]", "Water Soluble?": "No"},
      {"compound": "C=C(C)[C@@H]1CCC(C)=C[C@H]1c1c(O)cc(CCCCC)c(C(=O)O)c1O", "note": "[Cannabidiolic acid]", "Water Soluble?": "No"},
      {"compound": "C=C(C)[C@@H]1CCC(C)=C[C@H]1c1c(O)cc(C)cc1O", "note": "[Cannabidiorcol]", "Water Soluble?": "No"},
      {"compound": "C=C(C)[C@@H]1CCC(C)=C[C@H]1c1c(O)cc(CCC)cc1O", "note": "[Cannabidivarin]", "Water Soluble?": "No"},
      {"compound": "C=C(C)[C@@H]1CCC(C)=C[C@H]1c1c(O)cc(CCC)c(C(=O)O)c1O", "note": "[Cannabidivarinic acid]", "Water Soluble?": "Yes"},
      {"compound": "C=C(C)[C@@H]1CC[C@](C)(O)[C@H]2Oc3c(C(=O)O)c(CCCCC)cc(O)c3[C@@H]12", "note": "[Cannabielsoic acid B]", "Water Soluble?": "No"},
      {"compound": "C=C(C)[C@@H]1CC[C@](C)(O)[C@H]2Oc3cc(CCCCC)c(C(=O)O)c(O)c3[C@@H]12", "note": "[Cannabielsoin acid A]", "Water Soluble?": "No"},
      {"compound": "C=C(C)[C@@H]1CC[C@](C)(O)[C@H]2Oc3cc(CCCCC)cc(O)c3[C@@H]12", "note": "[Cannabielsoin]", "Water Soluble?": "No"},
      {"compound": "CCCCCc1cc(O)c(C/C=C(\\C)CCC=C(C)C)c(OC)c1", "note": "[Cannabigerol monomethylether]", "Water Soluble?": "No"},
      {"compound": "CCCCCc1cc(O)c(C/C=C(\\C)CCC=C(C)C)c(O)c1", "note": "[Cannabigerol]", "Water Soluble?": "No"},
      {"compound": "CCCCCc1cc(OC)c(C/C=C(\\C)CCC=C(C)C)c(O)c1C(=O)O", "note": "[Cannabigerolic acid monomethylether]", "Water Soluble?": "Yes"},
      {"compound": "CCCCCc1cc(O)c(C/C=C(\\C)CCC=C(C)C)c(O)c1C(=O)O", "note": "[Cannabigerolic acid]", "Water Soluble?": "Yes"}
    ]}
  ]
}
